Assay results reported in PubChem BioAssay AID248 (DTP/NCI, 2004).
Inconclusive results and toxic doses are left out. No stated cut-off is given here; in the data, active means T/C of 150% or more; inactive means T/C below 125%.

Test system: L1210 leukemia ip in BDF1 mice, survival T/C
Assay: NCI In Vivo Anticancer Drug Screen. Data for tumor model L1210 Leukemia (intraperitoneal) in B6D2F1 (BDF1) mice
Conditions: endpoint: mean survival time, higher = longer survival
Procedure, shortened: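 Tumor was transplanted into mice, which were then dosed with test compound or vehicle alone. Survival was recorded for each group, and the treated figure was expressed relative to the control figure.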

Measured: T/C

Cc1ccc(CNC(=O)Nc2cccc(C(F)(F)F)c2)cc1C
inactive: dose: 100.0 mg/kg/injection, schedule: Q01DX009 (ip), vehicle: gum acacia 89 % of control | dose: 200.0 mg/kg/injection, schedule: Q01DX009 (ip), vehicle: gum acacia 89 % of control

CC1OC(OC2C(CO)OC(O[C@H]3CC[C@@]4(C)C(=CC[C@H]5[C@@H]6C[C@@H]7O[C@@]8(CC[C@H](C)CN8)[C@@H](C)[C@@H]7[C@@]6(C)CC[C@@H]54)C3)C(OC3OC(C)C(O)C(O)C3O)C2O)C(O)C(O)C1O (some centres undefined)
inactive: dose: 10.0 mg/kg/injection, schedule: Q01DX009 (ip), vehicle: saline 115 % of control | dose: 20.0 mg/kg/injection, schedule: Q01DX009 (ip), vehicle: saline 103 % of control | dose: 40.0 mg/kg/injection, schedule: Q01DX009 (ip), vehicle: saline 100 % of control | dose: 80.0 mg/kg/injection, schedule: Q01DX009 (ip), vehicle: saline 103 % of control

NCC1COc2ccccc2N1 (centres undefined)
inactive: dose: 100.0 mg/kg/injection, schedule: Q04DX002 (ip), vehicle: other 108 % of control | dose: 200.0 mg/kg/injection, schedule: Q04DX002 (ip), vehicle: other 101 % of control | dose: 400.0 mg/kg/injection, schedule: Q04DX002 (ip), vehicle: other 111 % of control
